The target of data set [1] is PSMA (Homo sapiens, UniProt Q04609). Details: Five patients with a diagnosis of initial (n = 4) or biochemical recurrence of (n = 1) histologically proven prostate cancer; from tissue; host or cells: prostate cancer patients: primary tumour, lymph nodes, resected tissue sections; method as in PMID 27635024, PMID 30237214. The note with it: LNCaP cells, identical experimental conditions; cited from earlier work.

The test system of data set [2] is PSMA expressing LNCaP cells. Details: method as in PMID 27635024, PMID 30237214. The following applies: 60 min, 37 °C, normalized to ([^125I]IBA)KuE; cited from earlier work.
Data set [3] is described as follows: Photophysical characterization. The format is physicochemical. The note with it: in a 5% human serum albumin solution. How it is done: The determination of the quantum yield and molar extinction coefficient of PSMA-HSG were performed according to previously published procedures.
Of the free dye HOOC-(SO3)Cy5(SO3)-Methyl (Sulfo-Cy5), a 100 µM stock solution in PBS was prepared. From this, a dilution series comprising the following concentrations was prepared: 7.5 µM, 5 µM, 2.5 µM, 1 µM, 0.75 µM, 0.5 µM, 0.25 µM. Of these solutions, absorption spectra (n=3 per concentration) were recorded using a Shimadzu UV-1280 spectrometer (Shimadzu, Kyoto, Japan). The concentrations were plotted against the mean of the maximum absorbance per concentration. A trendline was fitted, with the regression coefficient x 10^6 representing the molar extinction coefficient (R^2 ≥ 0.9900) in M^-1.L^-1.cm^-1.
The brightness in (M^-1.L^-1.cm^-1) was calculated using the following formula:
Brightness =Quantum yield hybrid label*Molar extinction coefficient free dye

For data set [4], the system named is PC3-Pip xenografts in NSG mice. Put plainly: Fluorescence imaging in mice with clinical-grade fluorescence endoscope. The format is in vivo, mouse. How it is done:
Fluorescence imaging of PC3-Pip xenografts in NSG mice (2 h p.i. at a PSMA-HSG dose of 1 nmol and 6 h p.i. at a ligand dose of 0.1 nmol, respectively; n = 1 per compound and condition) was performed using a clinical-grade fluorescence laparoscopy set-up (KARL STORZ Endoskope GMBh & Co. KG). Cy5-based tumor imaging was performed using D-light P system and a prototype modified IMAGE 1 S light source with integrated Cy5 filter (both KARL STORZ Endoskope GMBh & Co. KG). Images were recorded using integrated KARL STORZ software and image processing was performed using custom MATLAB software that provided a signal intensity-based representation of the signal-to-background ratio (SBR; [45, 46]).
PC-3 PIP xenografts were established by subcutaneous injection of 5 × 10^6 PC3-PIP cells/mouse using 8–12-week-old male NSG mice (in-house breeding, Dpt. of Oncology, University of Lausanne) as previously described. Tumors reached a size of 4-8 mm in diameter after 5-6 days and were then immediately used for the fluorescence imaging studies.

For data set [5], the system named is PC3-Pip tumor slices. Put plainly: Confocal fluorescence imaging of excised tumor specimens. In kind it is in vivo, mouse. How it is done:
After in vivo imaging, the tumors (n = 1 per condition) were excised and cut into 2 mm slices. Prior to imaging, slices were placed on a 35-mm culture dish containing a glass insert (MatTek Co.). Fluorescence confocal imaging was then performed using a Leica SP8 WLL microscope (Leica Microsystems). For assessment of tracer uptake Cy5 settings were used; λex = 633 nm, λem = 650–700 nm. Images were processed using accompanying LASX software (Leica Application Software Suite 4.8).

The test system of data set [6] is LNCaP cells. Put plainly: Fluorescence microscopy of ligand internalization. The following applies: 100 nM. In kind it is cell-based, human. How it is done: Competitive binding experiments (IC50) were carried out in accordance with an established protocol using PSMA-expressing LNCaP cells and ([^125I]I-BA)KuE as standard radioligand. Internalization kinetics of [^99mTc]Tc-PSMA-HSG (0.5 nM) were investigated in a dual tracer internalization assay using PSMA expressing LNCaP cells and ([^125I]I-BA)KuE (0.1 nM) as an internal reference. Non-specific binding/internalization was determined in the presence of 10 µM 2-PMPA. Furthermore, PSMA-HSG internalization into LNCaP cells was investigated using fluorescence microscopy (100 nM PSMA-HSG). Please see the Supplementary Material for experimental details.
Two days prior to the experiment, LNCaP cells (approximately 100.000 cells/well) were seeded on round glass coverslips placed in the bottoms of the wells of 24-well plates. After cell adhesion and expansion, the culture medium was removed by aspiration, and the cells were washed with HBSS (1% BSA). […]
Fluorescence images were acquired on a Zeiss Axio Observer Z1 inverted microscope using a Plan Apochromat 20x, N.A. 0.8, air, DIC objective or a Plan Apochromat 63x, N.A. 1.4, oil, DIC objective. […] Fluorescence illumination was provided by an X-Cite fluorescence lamp. […]

Sequence of PSMA (Q04609 whole entry): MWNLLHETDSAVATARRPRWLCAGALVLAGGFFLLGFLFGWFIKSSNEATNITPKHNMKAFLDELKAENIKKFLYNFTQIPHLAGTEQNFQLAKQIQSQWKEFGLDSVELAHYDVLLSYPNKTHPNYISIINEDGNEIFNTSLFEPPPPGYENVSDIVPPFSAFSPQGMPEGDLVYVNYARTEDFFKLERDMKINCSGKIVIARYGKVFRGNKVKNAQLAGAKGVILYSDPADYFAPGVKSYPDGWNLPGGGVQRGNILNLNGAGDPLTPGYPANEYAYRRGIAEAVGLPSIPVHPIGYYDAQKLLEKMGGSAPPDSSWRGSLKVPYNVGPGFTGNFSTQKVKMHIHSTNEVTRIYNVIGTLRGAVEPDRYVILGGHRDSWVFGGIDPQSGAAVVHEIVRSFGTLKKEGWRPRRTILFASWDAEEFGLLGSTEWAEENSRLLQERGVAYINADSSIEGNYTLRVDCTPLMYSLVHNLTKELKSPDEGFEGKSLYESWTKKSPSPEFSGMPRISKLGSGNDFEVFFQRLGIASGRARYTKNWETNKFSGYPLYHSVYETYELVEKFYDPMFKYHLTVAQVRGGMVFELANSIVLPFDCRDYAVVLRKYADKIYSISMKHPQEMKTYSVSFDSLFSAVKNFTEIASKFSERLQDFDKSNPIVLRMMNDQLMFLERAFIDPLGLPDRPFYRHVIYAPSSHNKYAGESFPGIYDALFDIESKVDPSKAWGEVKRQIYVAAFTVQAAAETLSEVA

A word on the IC50: it is the point on the concentration scale where inhibition reaches its midpoint. For “PSMA-I&S: non-fluorescent parent compound, unlabeled”, in data set [1], the IC50 was 39.7 ± 1.2 nM.
For the compound `O=C(O)CC[C@H](NC(=O)NC(CCCCNC(=O)c1ccc([125I])cc1)C(=O)O)C(=O)O` (stereo partly drawn) [([^125I]IBA)KuE], in data set [2], the “internalization [% of reference]” value is listed as 100 % of reference.
The compound `CC(=O)SCC(=O)N[C@H](CO)C(=O)N[C@H](CO)C(=O)N[C@H](CO)C(=O)N[C@H](CCCCNC(=O)CCCCCN1/C(=C/C=C/C=C/C2=[N+](C)c3ccc(S(=O)(=O)[O-])cc3C2(C)C)C(C)(C)c2cc(S(=O)(=O)O)ccc21)C(=O)N[C@H](Cc1ccc(O)cc1)C(=O)N[C@H](Cc1ccc2ccccc2c1)C(=O)N[C@H](CCCCNC(=O)CCCCCCC(=O)NCCCC[C@H](NC(=O)N[C@@H](CCC(=O)O)C(=O)O)C(=O)O)C(=O)O` [PSMA-HSG] yielded a quantum yield in data set [3] of 26%. For the same compound, the “in vivo tumor fluorescence, Cy5 fluorescence endoscope” value in data set [4] (0.1 nmol, 6 h p.i.) is reported as “only a weak fluorescence signal”; in data set [4] (1 nmol, 2 h p.i.), “high relative PSMA-HSG fluorescence intensity”. Also, the “confocal fluorescence microscopy of tumor slices” value was “strong and homogenous PSMA-HSG fluorescence” in data set [5] (2 h p.i./1 nmol); “detectable, but weak fluorescence signal” in data set [5] (6 h p.i./0.1 nmol (low dose/late timepoint)). In data set [6] (30 min, 4 °C), the “membrane binding, fluorescence microscopy” value is “intense and PSMA-specific membrane staining”. In addition, in data set [6] (60 min, 37 °C), the “internalization, fluorescence microscopy” value is “efficient ligand translocation into the cells”.

Values taken from article PMC13013135, “[^99mTc]Tc-PSMA-HSG for PSMA-targeted Hybrid Surgical Guidance: a new addition to the PSMA-I&S/I&T family” (European Journal of Nuclear Medicine and Molecular Imaging, 2025).
